{"source": "patent US20200024278A1", "about": "“COMPOSITION COMPRISING ANTIBIOTIC COMPOUND AND AN HETEROCYCLIC COMPOUND AND THEIR USE IN PREVENTING OR TREATING BACTERIAL INFECTIONS” (MUTABILIS, priority 2016, published 2020)", "test_in_all_cases": "MIC, broth microdilution (CLSI), substance alone or ATB combined with compound at 4 or 8 μg/mL", "key": {"[1]": {"tested_on": "PAE UFR48", "format": "cell-based, P. aeruginosa", "conditions": "PAE UFR48", "outline": "(§1)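 Each strain received 5·10^5 CFU/mL of log-phase cells in ca-MHB over DMSO-spotted compound or compound-antibiotic combinations. After 16-20 h at 35° C, growth was scored visually.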"}, "[2]": {"tested_on": "PAE UFR90", "format": "cell-based, P. aeruginosa", "conditions": "PAE UFR90", "outline": "as §1"}, "[3]": {"tested_on": "PAE 105250", "format": "cell-based, P. aeruginosa", "conditions": "PAE 105250", "outline": "as §1"}, "[4]": {"tested_on": "ECO UFR39", "format": "cell-based, E. coli", "conditions": "ECO UFR39", "outline": "as §1"}, "[5]": {"tested_on": "ECO 190317", "format": "cell-based, E. coli", "conditions": "ECO 190317; for MIC: Escherichia coli", "outline": "as §1"}, "[6]": {"tested_on": "SPN 49619", "format": "cell-based, S. pneumoniae", "conditions": "SPN 49619", "outline": "as §1"}}, "note": "Like-named read-outs stand apart in the source and are kept apart here."}
{"smiles": "COCC1=C(C(=O)O)N2C(=O)[C@@H](NC(=O)/C(=N\\OC)c3csc(N)n3)[C@H]2SC1", "note": "[POD, Cefpodoxime, reference compound]", "values": [{"measurement": "MIC ATB combined with Example 1 @8 μg/ml", "setting": "[1]; with Example 1 at 8 μg/ml", "result": "<0.031", "unit": "µg/mL"}, {"measurement": "MIC ATB combined with Example 7 @8 μgml", "setting": "[1]; with Example 7 at 8 μg/ml", "result": ">32", "unit": "µg/mL"}, {"measurement": "MIC ATB combined with Example 9 @4 μg/ml", "setting": "[1]; with Example 9 at 4 μg/ml", "result": ">32", "unit": "µg/mL"}, {"measurement": "MIC ATB combined with Example 11 @8 μg/ml", "setting": "[1]; with Example 11 at 8 μg/ml", "result": ">32", "unit": "µg/mL"}, {"measurement": "MIC ATB combined with Example 12 @8 μg/ml", "setting": "[1]; with Example 12 at 8 μg/ml", "result": ">32", "unit": "µg/mL"}, {"measurement": "MIC ATB combined with Example 13 @8 μg/ml", "setting": "[1]; with Example 13 at 8 μg/ml", "result": ">32", "unit": "µg/mL"}, {"measurement": "MIC ATB combined with Example 14 @8 μg/ml", "setting": "[1]; with Example 14 at 8 μg/ml", "result": ">32", "unit": "µg/mL"}, {"measurement": "MIC ATB combined with Example 15 @4 μgml", "setting": "[1]; with Example 15 at 4 μg/ml", "result": ">32", "unit": "µg/mL"}, {"measurement": "MIC ATB combined with Example 16 @4 μg/ml", "setting": "[1]; with Example 16 at 4 μg/ml", "result": ">32", "unit": "µg/mL"}, {"measurement": "MIC ATB combined with Example 1 @8 μg/ml", "setting": "[2]; with Example 1 at 8 μg/ml", "result": "<0.031", "unit": "µg/mL"}, {"measurement": "MIC ATB combined with Example 7 @8 μgml", "setting": "[2]; with Example 7 at 8 μg/ml", "result": ">32", "unit": "µg/mL"}, {"measurement": "MIC ATB combined with Example 9 @4 μg/ml", "setting": "[2]; with Example 9 at 4 μg/ml", "result": ">32", "unit": "µg/mL"}, {"measurement": "MIC ATB combined with Example 11 @8 μg/ml", "setting": "[2]; with Example 11 at 8 μg/ml", "result": ">32", "unit": "µg/mL"}, {"measurement": "MIC ATB combined with Example 12 @8 μg/ml", "setting": "[2]; with Example 12 at 8 μg/ml", "result": ">32", "unit": "µg/mL"}, {"measurement": "MIC ATB combined with Example 13 @8 μg/ml", "setting": "[2]; with Example 13 at 8 μg/ml", "result": ">32", "unit": "µg/mL"}, {"measurement": "MIC ATB combined with Example 14 @8 μg/ml", "setting": "[2]; with Example 14 at 8 μg/ml", "result": ">32", "unit": "µg/mL"}, {"measurement": "MIC ATB combined with Example 15 @4 μgml", "setting": "[2]; with Example 15 at 4 μg/ml", "result": ">32", "unit": "µg/mL"}, {"measurement": "MIC ATB combined with Example 16 @4 μg/ml", "setting": "[2]; with Example 16 at 4 μg/ml", "result": ">32", "unit": "µg/mL"}, {"measurement": "MIC ATB combined with Example 1 @8 μg/ml", "setting": "[3]; with Example 1 at 8 μg/ml", "result": 0.125, "unit": "µg/mL"}, {"measurement": "MIC ATB combined with Example 7 @8 μgml", "setting": "[3]; with Example 7 at 8 μg/ml", "result": ">32", "unit": "µg/mL"}, {"measurement": "MIC ATB combined with Example 9 @4 μg/ml", "setting": "[3]; with Example 9 at 4 μg/ml", "result": ">32", "unit": "µg/mL"}, {"measurement": "MIC ATB combined with Example 11 @8 μg/ml", "setting": "[3]; with Example 11 at 8 μg/ml", "result": ">32", "unit": "µg/mL"}, {"measurement": "MIC ATB combined with Example 12 @8 μg/ml", "setting": "[3]; with Example 12 at 8 μg/ml", "result": ">32", "unit": "µg/mL"}, {"measurement": "MIC ATB combined with Example 13 @8 μg/ml", "setting": "[3]; with Example 13 at 8 μg/ml", "result": ">32", "unit": "µg/mL"}, {"measurement": "MIC ATB combined with Example 14 @8 μg/ml", "setting": "[3]; with Example 14 at 8 μg/ml", "result": ">32", "unit": "µg/mL"}, {"measurement": "MIC ATB combined with Example 15 @4 μgml", "setting": "[3]; with Example 15 at 4 μg/ml", "result": ">32", "unit": "µg/mL"}, {"measurement": "MIC ATB combined with Example 16 @4 μg/ml", "setting": "[3]; with Example 16 at 4 μg/ml", "result": ">32", "unit": "µg/mL"}, {"measurement": "MIC", "setting": "[3]; Pseudomonas aeruginosa, antibiotic alone, read-out: MIC ATB alone", "result": "> 512", "unit": "µg/mL"}, {"measurement": "MIC ATB combined with Example 1 @8 μg/ml", "setting": "[4]; with Example 1 at 8 μg/ml", "result": "<0.031", "unit": "µg/mL"}, {"measurement": "MIC ATB combined with Example 7 @8 μgml", "setting": "[4]; with Example 7 at 8 μg/ml", "result": "<0.031", "unit": "µg/mL"}, {"measurement": "MIC ATB combined with Example 9 @4 μg/ml", "setting": "[4]; with Example 9 at 4 μg/ml", "result": "<0.031", "unit": "µg/mL"}, {"measurement": "MIC ATB combined with Example 11 @8 μg/ml", "setting": "[4]; with Example 11 at 8 μg/ml", "result": "<0.031", "unit": "µg/mL"}, {"measurement": "MIC ATB combined with Example 12 @8 μg/ml", "setting": "[4]; with Example 12 at 8 μg/ml", "result": "<0.031", "unit": "µg/mL"}, {"measurement": "MIC ATB combined with Example 13 @8 μg/ml", "setting": "[4]; with Example 13 at 8 μg/ml", "result": "<0.031", "unit": "µg/mL"}, {"measurement": "MIC ATB combined with Example 14 @8 μg/ml", "setting": "[4]; with Example 14 at 8 μg/ml", "result": "<0.031", "unit": "µg/mL"}, {"measurement": "MIC ATB combined with Example 15 @4 μgml", "setting": "[4]; with Example 15 at 4 μg/ml", "result": "<0.031", "unit": "µg/mL"}, {"measurement": "MIC ATB combined with Example 16 @4 μg/ml", "setting": "[4]; with Example 16 at 4 μg/ml", "result": "<0.031", "unit": "µg/mL"}, {"measurement": "MIC", "setting": "[4]; Escherichia coli, antibiotic alone, read-out: MIC ATB alone", "result": "> 256", "unit": "µg/mL"}, {"measurement": "MIC ATB combined with Example 1 @8 μg/ml", "setting": "[5]; with Example 1 at 8 μg/ml", "result": "<0.031", "unit": "µg/mL"}, {"measurement": "MIC ATB combined with Example 7 @8 μgml", "setting": "[5]; with Example 7 at 8 μg/ml", "result": "<0.031", "unit": "µg/mL"}, {"measurement": "MIC ATB combined with Example 9 @4 μg/ml", "setting": "[5]; with Example 9 at 4 μg/ml", "result": "<0.031", "unit": "µg/mL"}, {"measurement": "MIC ATB combined with Example 11 @8 μg/ml", "setting": "[5]; with Example 11 at 8 μg/ml", "result": "<0.031", "unit": "µg/mL"}, {"measurement": "MIC ATB combined with Example 12 @8 μg/ml", "setting": "[5]; with Example 12 at 8 μg/ml", "result": "<0.031", "unit": "µg/mL"}, {"measurement": "MIC ATB combined with Example 13 @8 μg/ml", "setting": "[5]; with Example 13 at 8 μg/ml", "result": "<0.031", "unit": "µg/mL"}, {"measurement": "MIC ATB combined with Example 14 @8 μg/ml", "setting": "[5]; with Example 14 at 8 μg/ml", "result": "<0.031", "unit": "µg/mL"}, {"measurement": "MIC ATB combined with Example 15 @4 μgml", "setting": "[5]; with Example 15 at 4 μg/ml", "result": "<0.031", "unit": "µg/mL"}, {"measurement": "MIC ATB combined with Example 16 @4 μg/ml", "setting": "[5]; with Example 16 at 4 μg/ml", "result": "<0.031", "unit": "µg/mL"}, {"measurement": "MIC", "setting": "[5]; antibiotic alone, read-out: MIC ATB alone", "result": "> 512", "unit": "µg/mL"}, {"measurement": "MIC", "setting": "[5]; substance alone, read-out: MIC", "result": "> 512", "unit": "µg/mL"}, {"measurement": "MIC ATB combined with Example 1 @8 μg/ml", "setting": "[6]; with Example 1 at 8 μg/ml", "result": 0.063, "unit": "µg/mL"}, {"measurement": "MIC ATB combined with Example 7 @8 μgml", "setting": "[6]; with Example 7 at 8 μg/ml", "result": 0.063, "unit": "µg/mL"}, {"measurement": "MIC ATB combined with Example 9 @4 μg/ml", "setting": "[6]; with Example 9 at 4 μg/ml", "result": "<0.031", "unit": "µg/mL"}, {"measurement": "MIC ATB combined with Example 11 @8 μg/ml", "setting": "[6]; with Example 11 at 8 μg/ml", "result": "<=0.031 μg/mL"}, {"measurement": "MIC ATB combined with Example 12 @8 μg/ml", "setting": "[6]; with Example 12 at 8 μg/ml", "result": "<0.031", "unit": "µg/mL"}, {"measurement": "MIC ATB combined with Example 13 @8 μg/ml", "setting": "[6]; with Example 13 at 8 μg/ml", "result": 0.063, "unit": "µg/mL"}, {"measurement": "MIC ATB combined with Example 14 @8 μg/ml", "setting": "[6]; with Example 14 at 8 μg/ml", "result": "<0.031", "unit": "µg/mL"}]}
